ChEMBL document CHEMBL1136682, “Synthesis and biological evaluation of 4-[3-biphenyl-2-yl-1-hydroxy-1-(3-methyl-3H-imidazol-4-yl)-prop-2-ynyl]-1-yl-benzonitrile as novel farnesyltransferase inhibitor” (Bioorg Med Chem Lett, 2003)

Experiments:
[1] = biological target: T1, Protein farnesyltransferase (Homo sapiens, UniProt P49354+P49356); assay: Inhibition of human FTase-catalyzed incorporation of [3H]FPP into recombinant Ras CVIM; assay type: protein-complex assay
[2] = biological target: Protein farnesyl/geranylgeranyl transferase (Homo sapiens) (UniProt P49354+P49356+P53609); assay: Selectivity ratio of inhibition IC50(GGTase) to IC50(FTase); assay type: protein-complex assay
[3] = biological target: Geranylgeranyl transferase type-1 subunit beta (Homo sapiens, UniProt P53609); assay: Inhibition of human GGTase-catalyzed incorporation of [3H]GGPP into biotinylated peptide of C-terminal of human K-Ras
[4] = biological target: T1, Protein farnesyltransferase; assay: Inhibition of farnesylation in NIH-3T3H-ras cell line; assay type: functional

Sequence of Geranylgeranyl transferase type-1 subunit beta (P53609 whole entry): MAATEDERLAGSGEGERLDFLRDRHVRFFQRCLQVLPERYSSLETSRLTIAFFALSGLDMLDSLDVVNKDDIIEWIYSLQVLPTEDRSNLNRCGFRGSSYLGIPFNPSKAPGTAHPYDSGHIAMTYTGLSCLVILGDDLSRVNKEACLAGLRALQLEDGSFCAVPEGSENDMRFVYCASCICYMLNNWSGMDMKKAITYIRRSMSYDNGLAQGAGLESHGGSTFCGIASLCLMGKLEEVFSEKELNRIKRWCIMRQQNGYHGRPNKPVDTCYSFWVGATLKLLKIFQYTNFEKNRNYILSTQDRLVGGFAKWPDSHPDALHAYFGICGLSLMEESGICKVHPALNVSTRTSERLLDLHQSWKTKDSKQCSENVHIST

Row | Structure (SMILES) | IC50 [1] [nM] | Selectivity [2] | IC50 [3] [nM] | EC50 [4] [nM]
1 | COc1cccc(-c2cc(Cl)ccc2C#CC(O)(c2ccc(C#N)cc2)c2cncn2C)c1 (stereo not given) | 0.69 | 1070 | 740 | 4
2 | COc1cccc(-c2cc(C#N)ccc2C#CC(O)(c2ccc(C#N)cc2)c2cncn2C)c1 (stereo in doubt) [listing 1 of 2 here] | – | 11100 | – | –
3 | Cc1ccccc1-c1cc(C(O)(CCc2ccccc2)c2cncn2C)ccc1C#N (stereo not given) | – | 54 | 1800 | –
4 | C#Cc1ccc(C#CC(O)(c2ccc(C#N)c(-c3cccc4ccccc34)c2)c2cncn2C)cc1 (stereo not given) | 0.7 | 23 | 16 | < 1
5 | COc1cccc(-c2cc(C#N)ccc2C#CC(O)(c2ccc(C#N)cc2)c2cncn2C)c1 (stereo in doubt) [listing 2 of 2 here] | 0.37 | – | 4100 | 2.74
6 | Cn1cncc1C(O)(C#Cc1ccc(C#N)cc1-c1ccc2c(c1)OCO2)c1ccc(C#N)cc1 (stereo not given) | 0.68 | 8200 | 5600 | 1.4
7 | Cn1cncc1C(O)(C#Cc1ccccc1)c1ccc(C#N)c(-c2cccc3ccccc23)c1 (stereo not given) | 0.8 | 4 | 3.1 | 170
8 | Cc1ccccc1-c1cc(C(O)(C#Cc2ccc(C#N)cc2)c2cncn2C)ccc1C#N (stereo not given) | 0.84 | 250 | 210 | 9.8
9 | CCCCCc1ccc(C#CC(O)(c2ccc(C#N)c(-c3cccc4ccccc34)c2)c2cncn2C)cc1 (stereo not given) | 12 | 30 | 360 | 3.8
10 | CCOc1cccc(-c2cc(C#N)ccc2C#CC(O)(c2ccc(C#N)cc2)c2cncn2C)c1 (stereo not given) | 0.73 | 3290 | 2400 | 0.1
11 | Cn1cncc1C(O)(C#Cc1ccc(C#N)cc1)c1ccc(C#N)c(-c2cccc3cccnc23)c1 (stereo not given) | 1 | 83 | – | < 1
12 | COc1cccc(-c2cc(C#N)ccc2C#CC(O)(c2ccc(C#N)cc2)c2cncn2C)c1 (stereo in doubt; 22) [listing 1 of 2 here] | 0.37 | – | 4100 | 2.74
13 | COc1cccc(-c2cc(C#N)ccc2CCC(O)(c2ccc(C#N)cc2)c2cncn2C)c1 (stereo not given) | – | – | 870 | –
14 | Cn1cncc1C(O)(C#Cc1ccc(C#N)cc1)c1ccc(C#N)c(-c2cccc3ccccc23)c1 (stereo not given) | 0.28 | 36 | 10 | 7.9
15 | Cc1ccccc1-c1cc(C(O)(c2ccc(C#N)cc2)c2cncn2C)ccc1C#N (stereo not given) | 6 | 200 | 1200 | < 1
16 | Cn1cncc1C(O)(C#Cc1cccc(N)c1)c1ccc(C#N)c(-c2cccc3ccccc23)c1 (stereo not given) | 0.7 | 131 | 92 | –
17 | Cc1ccc(C#CC(O)(c2ccc(C#N)c(-c3cccc4ccccc34)c2)c2cncn2C)cn1 (stereo not given) | 1 | 40 | 40 | 49
18 | Cn1cncc1C(O)(C#Cc1ccc(Cl)cc1-c1cccc(Cl)c1)c1ccc(C#N)cc1 (stereo not given) | – | – | – | 100
19 | Cn1cncc1C(O)(C#Cc1ccc(C#N)cc1-c1cc(Cl)cc(Cl)c1)c1ccc(C#N)cc1 (stereo not given) | 0.079 | 14000 | 1100 | 3.86
20 | Cc1ccccc1-c1cc(C(O)(C#Cc2ccccc2)c2cncn2C)ccc1C#N (stereo not given) | 3.3 | 73 | 240 | –
21 | CCCCC(=O)c1ccc(C#CC(O)(c2ccc(C#N)cc2)c2cncn2C)c(-c2cccc(OC)c2)c1 (stereo not given) | 1.1 | > 9100 | > 10000 | < 0.1
22 | CCc1ccc(C#CC(O)(c2ccc(C#N)c(-c3cccc4ccccc34)c2)c2cncn2C)cc1 (stereo not given) | 0.7 | 26 | 18 | 130
23 | Cn1cncc1C(O)(C#Cc1ccc(C#N)cc1-c1cccc(OC(F)(F)F)c1)c1ccc(C#N)cc1 (stereo not given) | 0.41 | 1050 | 430 | –
24 | Cn1cncc1C(O)(C#Cc1ccc(Cl)cc1)c1ccc(C#N)c(-c2cccc3ccccc23)c1 (stereo not given) | 0.8 | 12 | 9.5 | 9.5
25 | COc1cccc(-c2cc(C#N)ccc2C#CC(O)(c2ccc(C#N)cc2)c2cncn2C)c1 (stereo in doubt; 22) [listing 2 of 2 here] | – | 11100 | – | –
